pIC50: −log10 of the molar value. Read-outs that look alike come from different tables or passages of the source.
Columns and labels:
[1] = test system: PTH release; assay: In vivo pharmacodynamic effects: PTH (Rat Intact PTH 1-84 ELISA); conditions: oral gavage
Experimental: Procedures for In Vivo Pharmacodynamic Effects
The objective of these studies was to assess the effect of compounds on stimulating PTH release and increasing calcium secretion in the rat. Male Sprague-Dawley rats (3-4 months old) were equipped with jugular vein cannulae (JVC) by surgical procedure. The rats were given the compound by oral gavage. Blood was sampled from the JVC at 15 minutes, 30 minutes, 60 minutes, 120 minutes, 240 minutes, 420 minutes, and 24 hrs post compound administration. Plasma was separated and used for a PTH ELISA assay and a calcium concentration assay. After the last blood sampling, the rats were sacrificed under anesthesia by inhalation of CO2. All procedures were conducted in compliance with the Animal Welfare Act, the Guide for the Care and Use of Laboratory Animals and the recommendations of the AVMA Panel on Euthanasia.
Rat plasma samples were used for measuring serum PTH levels: The Rat Intact PTH 1-84 ELISA kit (Immutopics Cat#60-2500) was used according to the manufacturer's instructions. Total serum calcium determination was made using a calcium arsenazo III reagent (Fisher Scientific Cat # Pointe Scientific Calcium (Arsenazo III) Reagents; Mfr. No.: C7529-500; Qty.: 500 mL. Mfr. No.: C7529-500, Part #23666172) according to the manufacturer's instructions. For these experiments, 2 μl of sample was added to 198 μl of reagent, mixed, and read at 650 nm.

[2] = Pharmacokinetic evaluation in rats; format: in vivo, rat; conditions: for clearance / Cmax / bioavailability / half-life: rat, plasma, dose and route not given; for clearance: read-out: Clp (plasma clearance); for Cmax: read-out: Cmax (maximum observed plasma concentration); for bioavailability: read-out: F % (bioavailability); for half-life: read-out: t1/2 (plasma half-life) (converted)
[3] = biological target: T1, human CaSR (Homo sapiens, UniProt P41180); assay: CaSR FLIPR assay (calcilytic activity); format: cell-based; parameters: expressed in transfected cells
T1 sequence (P41180 20-1078): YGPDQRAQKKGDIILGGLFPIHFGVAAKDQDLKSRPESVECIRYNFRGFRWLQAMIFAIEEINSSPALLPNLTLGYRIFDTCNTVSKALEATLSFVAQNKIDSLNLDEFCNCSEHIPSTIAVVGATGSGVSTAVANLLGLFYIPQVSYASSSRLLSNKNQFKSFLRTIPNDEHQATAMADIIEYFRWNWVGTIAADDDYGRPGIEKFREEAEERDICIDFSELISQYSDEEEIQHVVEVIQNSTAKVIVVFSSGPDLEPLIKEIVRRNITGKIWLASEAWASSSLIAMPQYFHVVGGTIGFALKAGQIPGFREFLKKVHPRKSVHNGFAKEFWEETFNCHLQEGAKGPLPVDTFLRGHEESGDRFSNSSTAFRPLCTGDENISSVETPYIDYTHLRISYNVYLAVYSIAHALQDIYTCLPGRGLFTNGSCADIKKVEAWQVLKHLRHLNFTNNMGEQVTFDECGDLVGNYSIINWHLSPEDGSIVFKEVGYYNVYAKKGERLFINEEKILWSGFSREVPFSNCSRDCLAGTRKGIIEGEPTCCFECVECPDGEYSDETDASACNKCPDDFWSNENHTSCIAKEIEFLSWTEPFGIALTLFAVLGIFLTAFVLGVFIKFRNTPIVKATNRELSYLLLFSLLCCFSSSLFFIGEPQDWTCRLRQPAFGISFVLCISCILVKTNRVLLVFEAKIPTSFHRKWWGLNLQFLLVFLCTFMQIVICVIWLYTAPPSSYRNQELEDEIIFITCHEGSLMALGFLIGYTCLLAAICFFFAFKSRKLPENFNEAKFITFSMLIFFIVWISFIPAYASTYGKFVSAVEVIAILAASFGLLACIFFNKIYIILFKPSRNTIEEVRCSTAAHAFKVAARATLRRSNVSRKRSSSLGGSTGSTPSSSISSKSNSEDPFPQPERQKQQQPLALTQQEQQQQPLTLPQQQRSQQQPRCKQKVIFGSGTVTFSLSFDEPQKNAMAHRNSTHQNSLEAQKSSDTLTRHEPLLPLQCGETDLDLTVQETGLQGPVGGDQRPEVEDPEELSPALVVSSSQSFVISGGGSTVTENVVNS
How it was run: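 Calcium flux in HEK293 cells stably expressing human CaSR, loaded with Calcium 4 dye for 1 h at 37° C, read on FLIPR. Compounds in 0.5% DMSO (10-point, 3-fold series) added first, then CaCl2 at 1 mM final. Buffer: 20 mM HEPES pH 7.4, HBSS, 0.4 mM CaCl2, Mg salts.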

[4] = HEK293 cells stably expressing human recombinant CaSR, 1 mM CaCl2 agonist, Tables 1-24, read-out: FLIPR ASSAY IC50
[5] = summary table, read-out: FLIPR CaSR (IC50)

| SMILES | Maximum Change in PTH (fold) ([1]; at 30 mpk) | half-lives in rats [2] | tmax [2] | clearance [2] | Cmax [2] | bioavailability [2] | half-life [2] | pIC50 [3, 4] | pIC50 [3, 5] | Maximum Change in PTH (fold) ([1]; at 10 mpk) |
| --- | --- | --- | --- | --- | --- | --- | --- | --- | --- | --- |
| CSc1ccc(CC(C)(C)NC[C@@H](O)CO[C@H](C)c2ccc(C)c3c2C2[C@H](O3)[C@H]2C(=O)O)cc1F (stereo partly drawn) [Example 8-24] | 4 (at fold | short half-lives | less than an hour | 40 mL/min/kg | 160 nM | 7% | 1.8 h | 7.68 | 7.70 | – |
| C[C@@H](OC[C@H](O)CNC(C)(C)Cc1ccc2ccccc2c1)c1cccc2c1[C@@H]1[C@H](O2)[C@H]1C(=O)O [Example 5-1] | – | short half-lives | less than an hour | 52.5 mL/min/kg | 690 nM | 7% | 1.3 h | 8.05 | 8.05 | 8 (at fold |
| C[C@@H](OC[C@H](O)CNC(C)(C)Cc1ccc2ccccc2c1)c1cccc2c1O[C@@H]1[C@@H](C(=O)O)[C@H]21 [Example 1-1] | 5.8 (at fold | short half-lives | less than an hour | 11 mL/min/kg | 2400 nM | 24% | 1.7 h | 7.59 | 7.66 | – |

Reference: patent publication US20160311791A1, “NOVEL TRICYCLIC CALCIUM SENSING RECEPTOR ANTOGONISTS FOR THE TREATMENT OF OSTEOPOSOSIS” (MERCK SHARP & DOHME CORP., priority 2013, published 2016)
